Test results taken from patent US20210196720A1 (UROVANT SCIENCES GMBH, priority 2018, published 2021).

What was measured:
clinical = conditions: human, in vivo
[1] = cited from earlier work
[2] = Drug interaction: effect of vibegron on conmed PK; conditions: human, in vivo, 4 mg
[3] = Phase 2b OAB study, adverse events
Text: A placebo group was included in the main study, and a group that received tolterodine monotherapy was included in the main study and in the extension.

[4] = Phase 2b OAB study, cardiovascular safety (HR, SBP, DBP, orthostatic AEs); type: in vivo, human; conditions: 4 mg
Text: None led to discontinuation. The overall incidence of orthostatic symptoms was low.
Small differences in the percent of subjects exceeding categorical heart rate and blood pressure thresholds for vibegron were similar to those in the tolterodine arm.

[5] = Mass balance study with [14C]vibegron, healthy subjects; conditions: human plasma, 2 and 4 hr
Text: The accumulation potential of circulating metabolites in plasma was not estimated due to insufficient data from later time points to enable estimation of half-life.

SMILES: C#C[C@]1(O)CC[C@H]2[C@@H]3CCC4=CC(=O)CC[C@@H]4[C@H]3CC[C@@]21CC [LNG, levonorgestrel]
- AUC (clinical; 0.15 mg): 31 ng·h/mL
- Cmax (clinical; 0.15 mg): 2.07 ng/mL

SMILES: O=C(O)c1cccc(-c2cccc(NCCNC[C@H](O)c3cccc(Cl)c3)c2)c1 [solabegron]
- number of pain- and discomfort-free days vs placebo ([1]; Phase IIa, IBS, females): statistically significant increase
- clinical benefit ([1]; Phase IIa, IBS, male subjects): no clinical benefit
- bowel function and plasma somatostatin concentration ([1]; healthy volunteers): no effect
- gastrointestinal or colonic transit ([1]; healthy volunteers): did not significantly alter

SMILES: C[C@H]1O[C@@H](O[C@H]2[C@@H](O)C[C@H](O[C@H]3[C@@H](O)C[C@H](O[C@H]4CC[C@@]5(C)[C@H](CC[C@@H]6[C@@H]5C[C@@H](O)[C@]5(C)[C@@H](C7=CC(=O)OC7)CC[C@]65O)C4)O[C@@H]3C)O[C@@H]2C)C[C@H](O)[C@@H]1O [Digoxin]
- AUC (clinical; 0.25 mg): 16.6 ng·h/mL

SMILES: Cc1ccc(O)c([C@H](CCN(C(C)C)C(C)C)c2ccccc2)c1 [Tolterodine ER, reference compound]
- Cmax [2]: 2.28 ng/mL
- Discontinuation due to drug-related AE, subjects ([3]; first 12 weeks, dose group by column): 0 n
- frequency of injuries ([3]; human, in vivo): 2.1%
- DBP change from baseline, mean (95% CI) max, week 1 to 8 [4]: 5.19 (4.26, 6.13) mm Hg
- DBP change from baseline, mean (95% CI), week 1 [4]: −0.12 (−1.10, 0.86) mm Hg
- HR change from baseline, mean (95% CI) maximum, week 1 to 8 [4]: 5.66 (4.69, 6.63) bpm
- HR change from baseline, mean (95% CI), week 1 [4]: 0.68 (−0.31, 1.67) bpm
- SBP change from baseline, mean (95% CI) maximum, week 1 to 8 [4]: 7.29 (6.01, 8.57) mm Hg
- SBP change from baseline, mean (95% CI), week 1 [4]: 0.04 (−1.36, 1.43) mm Hg

SMILES: C#C[C@]1(O)CC[C@H]2[C@@H]3CCc4cc(O)ccc4[C@H]3CC[C@@]21C [EE, ethinyl estradiol]
- AUC (clinical; 0.03 mg): 0.81 ng·h/mL
- Cmax (clinical; 0.03 mg): 0.0719 ng/mL

SMILES: O=C(O)C1OC(OC(c2ccccc2)C2CCC(Cc3ccc(NC(=O)C4CCc5nccc(=O)n54)cc3)N2)C(O)C(O)C1O (stereo not shown) [M7]
- share of total circulating drug-related material [5]: 12-14%
